# Test results: PubChem BioAssay (NCI)
#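 Grown in 96-well plates, cells were treated for 48 hours with each compound at five concentrations. Insufficient inhibition: endpoint recorded as highest concentration tested. GI50 marks 50% less growth. TGI: concentration producing complete growth inhibition.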
# Legend:
# Experiment in all cases: growth of human tumour cells (NCI), 48 h
# SK-OV-3 ovarian = system: SK-OV-3 ovarian
# MDA-MB-231 breast = system: MDA-MB-231 breast
# SF-295 CNS = system: SF-295 CNS
# SF-268 CNS = system: SF-268 CNS
# BT-549 breast = system: BT-549 breast
# UACC-62 melanoma = system: UACC-62 melanoma
# HS 578T breast = system: HS 578T breast
# SNB-75 CNS = system: SNB-75 CNS
# RXF 393 renal = system: RXF 393 renal
# IGROV1 ovarian = system: IGROV1 ovarian
# NCI-H522 lung = system: NCI-H522 lung
# MALME-3M melanoma = system: MALME-3M melanoma
# HOP-92 NSCLC = system: HOP-92 NSCLC
# HOP-62 NSCLC = system: HOP-62 NSCLC
# 786-0 renal = system: 786-0 renal
# K-562 leukemia = system: K-562 leukemia
# SNB-19 CNS = system: SNB-19 CNS
# HT29 colon = system: HT29 colon
# OVCAR-8 ovarian = system: OVCAR-8 ovarian
# PC-3 prostate = system: PC-3 prostate
# ACHN renal = system: ACHN renal
# DU-145 prostate = system: DU-145 prostate
# COLO 205 colon = system: COLO 205 colon
# HL-60(TB) leukemia = system: HL-60(TB) leukemia
# MCF7 breast = system: MCF7 breast
# UACC-257 melanoma = system: UACC-257 melanoma
# HCT-15 colon = system: HCT-15 colon
# M14 melanoma = system: M14 melanoma
# MDA-MB-435 = system: MDA-MB-435
# CAKI-1 renal = system: CAKI-1 renal
# NCI-H226 lung = system: NCI-H226 lung
# NCI/ADR-RES ovarian = system: NCI/ADR-RES ovarian
# SK-MEL-5 melanoma = system: SK-MEL-5 melanoma
# NCI-H460 lung = system: NCI-H460 lung
# U251 CNS = system: U251 CNS
# EKVX NSCLC = system: EKVX NSCLC
# HCT-116 colon = system: HCT-116 colon
# T-47D breast = system: T-47D breast
# RPMI-8226 leukemia = system: RPMI-8226 leukemia
# SR leukemia = system: SR leukemia
# OVCAR-5 ovarian = system: OVCAR-5 ovarian
# SN12C renal = system: SN12C renal
# A549 NSCLC = system: A549 NSCLC
# TK-10 renal = system: TK-10 renal
# NCI-H23 lung = system: NCI-H23 lung
# SF-539 CNS = system: SF-539 CNS
# A498 renal = system: A498 renal
# KM12 colon = system: KM12 colon
# SK-MEL-2 melanoma = system: SK-MEL-2 melanoma
# UO-31 renal = system: UO-31 renal
# LOX IMVI melanoma = system: LOX IMVI melanoma
# MOLT-4 leukemia = system: MOLT-4 leukemia
# CCRF-CEM leukemia = system: CCRF-CEM leukemia
# SK-MEL-28 melanoma = system: SK-MEL-28 melanoma
# OVCAR-4 ovarian = system: OVCAR-4 ovarian
# SW-620 colon = system: SW-620 colon
# HCC-2998 colon = system: HCC-2998 colon
structure (smiles),measurement,setting,value
N#C/C(=C\c1ccc(-c2ccc(Cl)cc2)o1)C(=O)Nc1ncc(Cc2ccc(Br)cc2)s1,GI50,SK-OV-3 ovarian,3920 nM
same,TGI,SK-OV-3 ovarian,25900 nM
same,GI50,MDA-MB-231 breast,3380 nM
same,TGI,MDA-MB-231 breast,> 100000 nM
same,GI50,SF-295 CNS,5220 nM
same,TGI,SF-295 CNS,51500 nM
same,GI50,SF-268 CNS,3730 nM
same,TGI,SF-268 CNS,> 100000 nM
same,GI50,BT-549 breast,1840 nM
same,TGI,BT-549 breast,8690 nM
same,GI50,UACC-62 melanoma,2950 nM
same,TGI,UACC-62 melanoma,> 100000 nM
same,GI50,HS 578T breast,1230 nM
same,TGI,HS 578T breast,6270 nM
same,GI50,SNB-75 CNS,794 nM
same,TGI,SNB-75 CNS,3830 nM
same,GI50,RXF 393 renal,8850 nM
same,TGI,RXF 393 renal,33700 nM
same,GI50,IGROV1 ovarian,2890 nM
same,TGI,IGROV1 ovarian,> 100000 nM
same,GI50,NCI-H522 lung,2640 nM
same,TGI,NCI-H522 lung,> 100000 nM
same,GI50,MALME-3M melanoma,1550 nM
same,TGI,MALME-3M melanoma,4260 nM
same,GI50,HOP-92 NSCLC,1130 nM
same,TGI,HOP-92 NSCLC,8280 nM
same,GI50,HOP-62 NSCLC,2470 nM
same,TGI,HOP-62 NSCLC,> 100000 nM
same,GI50,786-0 renal,2450 nM
same,TGI,786-0 renal,6800 nM
same,GI50,K-562 leukemia,4470 nM
same,TGI,K-562 leukemia,> 100000 nM
same,GI50,SNB-19 CNS,3580 nM
same,TGI,SNB-19 CNS,> 100000 nM
CC[C@]12C=CCN3CC[C@]4(C(=C(C(=O)OC)C1)Nc1cc5c(cc14)[C@@H]1[C@H](O5)[C@@H](O)[C@@]4(CC)CC(C(=O)OC)=C5Nc6cc(OC)ccc6[C@@]56CCN1[C@@H]46)[C@@H]32,GI50,SK-OV-3 ovarian,167 nM
same,TGI,SK-OV-3 ovarian,706 nM
same,GI50,HT29 colon,161 nM
same,TGI,HT29 colon,1810 nM
same,GI50,MDA-MB-231 breast,163 nM
same,TGI,MDA-MB-231 breast,> 11400 nM
same,GI50,OVCAR-8 ovarian,199 nM
same,TGI,OVCAR-8 ovarian,2470 nM
same,GI50,PC-3 prostate,225 nM
same,TGI,PC-3 prostate,5140 nM
same,GI50,ACHN renal,174 nM
same,TGI,ACHN renal,690 nM
same,GI50,SF-295 CNS,250 nM
same,TGI,SF-295 CNS,13800 nM
same,GI50,DU-145 prostate,591 nM
same,TGI,DU-145 prostate,> 20400 nM
same,GI50,COLO 205 colon,108 nM
same,TGI,COLO 205 colon,437 nM
same,GI50,SF-268 CNS,343 nM
same,TGI,SF-268 CNS,11700 nM
same,GI50,HL-60(TB) leukemia,58.3 nM
same,GI50,MCF7 breast,121 nM
same,TGI,MCF7 breast,> 16500 nM
same,GI50,BT-549 breast,230 nM
same,TGI,BT-549 breast,2220 nM
same,GI50,UACC-257 melanoma,183 nM
same,TGI,UACC-257 melanoma,3720 nM
same,GI50,HCT-15 colon,137 nM
same,TGI,HCT-15 colon,511 nM
same,GI50,M14 melanoma,163 nM
same,TGI,M14 melanoma,3140 nM
same,GI50,MDA-MB-435,173 nM
same,TGI,MDA-MB-435,1460 nM
same,GI50,CAKI-1 renal,87.7 nM
same,TGI,CAKI-1 renal,2130 nM
same,GI50,UACC-62 melanoma,103 nM
same,TGI,UACC-62 melanoma,1630 nM
same,GI50,NCI-H226 lung,160 nM
same,TGI,NCI-H226 lung,4300 nM
same,GI50,NCI/ADR-RES ovarian,388 nM
same,TGI,NCI/ADR-RES ovarian,> 50000 nM
same,GI50,SK-MEL-5 melanoma,227 nM
same,TGI,SK-MEL-5 melanoma,2980 nM
same,GI50,NCI-H460 lung,407 nM
same,TGI,NCI-H460 lung,5550 nM
same,GI50,HS 578T breast,211 nM
same,TGI,HS 578T breast,> 50000 nM
same,GI50,SNB-75 CNS,345 nM
same,TGI,SNB-75 CNS,4440 nM
same,GI50,RXF 393 renal,150 nM
same,TGI,RXF 393 renal,613 nM
same,GI50,U251 CNS,174 nM
same,TGI,U251 CNS,877 nM
same,GI50,EKVX NSCLC,253 nM
same,TGI,EKVX NSCLC,12300 nM
same,GI50,HCT-116 colon,102 nM
same,TGI,HCT-116 colon,352 nM
same,GI50,T-47D breast,155 nM
same,TGI,T-47D breast,1330 nM
same,GI50,RPMI-8226 leukemia,133 nM
same,TGI,RPMI-8226 leukemia,576 nM
same,GI50,SR leukemia,137 nM
same,TGI,SR leukemia,2820 nM
same,GI50,OVCAR-5 ovarian,294 nM
same,TGI,OVCAR-5 ovarian,5340 nM
same,GI50,SN12C renal,236 nM
same,TGI,SN12C renal,5960 nM
same,GI50,A549 NSCLC,368 nM
same,TGI,A549 NSCLC,6940 nM
same,GI50,IGROV1 ovarian,152 nM
same,TGI,IGROV1 ovarian,2010 nM
same,GI50,TK-10 renal,128 nM
same,TGI,TK-10 renal,1050 nM
same,GI50,NCI-H522 lung,109 nM
same,TGI,NCI-H522 lung,349 nM
same,GI50,NCI-H23 lung,171 nM
same,TGI,NCI-H23 lung,805 nM
same,GI50,MALME-3M melanoma,187 nM
same,TGI,MALME-3M melanoma,3800 nM
same,GI50,HOP-92 NSCLC,70.9 nM
same,TGI,HOP-92 NSCLC,4050 nM
same,GI50,HOP-62 NSCLC,189 nM
same,TGI,HOP-62 NSCLC,3120 nM
same,GI50,SF-539 CNS,147 nM
same,TGI,SF-539 CNS,1330 nM
same,GI50,A498 renal,98 nM
same,TGI,A498 renal,299 nM
same,GI50,KM12 colon,231 nM
same,TGI,KM12 colon,3230 nM
same,GI50,SK-MEL-2 melanoma,229 nM
same,TGI,SK-MEL-2 melanoma,2930 nM
same,GI50,UO-31 renal,131 nM
same,TGI,UO-31 renal,2180 nM
same,GI50,786-0 renal,92.9 nM
same,TGI,786-0 renal,1070 nM
same,GI50,LOX IMVI melanoma,29.6 nM
same,TGI,LOX IMVI melanoma,105 nM
same,GI50,MOLT-4 leukemia,190 nM
same,TGI,MOLT-4 leukemia,> 50000 nM
same,GI50,CCRF-CEM leukemia,161 nM
same,TGI,CCRF-CEM leukemia,> 50000 nM
same,GI50,K-562 leukemia,117 nM
same,TGI,K-562 leukemia,> 50000 nM
same,GI50,SNB-19 CNS,300 nM
same,TGI,SNB-19 CNS,14900 nM
same,GI50,SK-MEL-28 melanoma,457 nM
same,TGI,SK-MEL-28 melanoma,3260 nM
same,GI50,OVCAR-4 ovarian,181 nM
same,TGI,OVCAR-4 ovarian,> 50000 nM
same,GI50,SW-620 colon,177 nM
same,TGI,SW-620 colon,1260 nM
same,GI50,HCC-2998 colon,130 nM
same,TGI,HCC-2998 colon,557 nM
